Experimental data reported in patent publication US20170355705A1 (GlaxoSmithKline Intellectual Property (No.2) Limited, priority 2014, published 2017).
Read-outs that look alike come from different tables or passages of the source.

Molecular target: T1, SIRT1 (Homo sapiens, UniProt Q96EB6)
T1 sequence (Q96EB6 1-747): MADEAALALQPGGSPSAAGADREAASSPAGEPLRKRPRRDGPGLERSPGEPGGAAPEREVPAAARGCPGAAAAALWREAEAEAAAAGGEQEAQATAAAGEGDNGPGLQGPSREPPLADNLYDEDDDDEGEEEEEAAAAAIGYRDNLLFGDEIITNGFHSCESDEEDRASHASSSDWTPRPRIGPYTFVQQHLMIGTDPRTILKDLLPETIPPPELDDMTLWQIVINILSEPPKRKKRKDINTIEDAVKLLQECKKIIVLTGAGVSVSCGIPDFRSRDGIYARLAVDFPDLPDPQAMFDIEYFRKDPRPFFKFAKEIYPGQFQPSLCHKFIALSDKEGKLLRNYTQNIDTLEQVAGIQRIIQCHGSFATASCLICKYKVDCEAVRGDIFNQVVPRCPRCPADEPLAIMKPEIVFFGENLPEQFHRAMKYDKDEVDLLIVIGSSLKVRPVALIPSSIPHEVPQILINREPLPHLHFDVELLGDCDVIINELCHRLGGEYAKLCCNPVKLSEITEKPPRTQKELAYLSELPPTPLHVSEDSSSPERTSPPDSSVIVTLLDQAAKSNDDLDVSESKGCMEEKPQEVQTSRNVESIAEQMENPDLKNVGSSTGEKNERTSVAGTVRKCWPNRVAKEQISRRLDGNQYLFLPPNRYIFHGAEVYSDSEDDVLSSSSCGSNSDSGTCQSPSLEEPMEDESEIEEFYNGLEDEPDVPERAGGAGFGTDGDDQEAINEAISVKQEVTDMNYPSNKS
Test: Trp mass spectrometry assay of SIRT1 activity (EC1.5, percent maximum activation)
Assay type: biochemical
In short: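 N-terminal His-tagged human SIRT1 from E. coli BL21(DE3) was incubated 25 min with a 5TMR-labelled, p53-derived Trp peptide and NAD plus varying compound concentrations, then quenched with formic acid. Mass spectrometry quantified OAADPR or deacetylated peptide versus compound-free control, giving EC1.5 and percent maximum activation.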

[1] = Trp mass spectrometry assay, 0.5 μM peptide substrate, 120 μM βNAD+, 10 nM SIRT1, 25 minutes at 25° C.
[2] = Trp mass spectrometry assay, EC1.5 = concentration giving 150% activation of SIRT1
[3] = Trp mass spectrometry assay, percent maximum activation of SIRT1

SMILES	TRP MAX RESP (percent maximum fold activation) [1]	TRP Activity (EC1.5) [2]	TRP MAX RESP (percent maximum fold activation) [3]	also measured
CC(C)(CO)COc1cncc(NC(=O)N2c3nc(-c4cccc(C(F)(F)F)c4)ccc3N3CC[C@H]2C3)n1 [Example 304, (4S)-N-(6-(3-hydroxy-2,2-dimethylpropoxy)pyrazin-2-yl)-7-(3-(trifluoromethyl)phenyl)-3,4-dihydro-1,4-methanopyrido[2,3-b][1,4]diazepine-5(2H)-carboxamide]	A (Fold activation ≧150%)			TRP Activity (EC1.5, concentration of test compound that results in 150% activation of SIRT1) [1]: A (EC1.5<1 μM)
Cc1ccc(-c2ccc3c(n2)N(C(=O)Nc2cncc(OC[C@@H](O)CO)n2)[C@H]2CCN3C2)cn1 [Example 205, (4S)-N-(6-((S)-2,3-dihydroxypropoxy)pyrazin-2-yl)-7-(6-methylpyridin-3-yl)-3,4-dihydro-1,4-methanopyrido[2,3-b][1,4]diazepine-5(2H)-carboxamide]	A (Fold activation ≧150%)			TRP Activity (EC1.5, concentration of test compound that results in 150% activation of SIRT1) [1]: B (EC1.5 1-25 μM)
O=C(Nc1ccnc(OC[C@H](O)CO)n1)N1c2nc(-c3cccc(C(F)(F)F)c3)ccc2N2CC[C@H]1C2 [Example 127, (4S)-N-(2-((R)-2,3-dihydroxypropoxy)pyrimidin-4-yl)-7-(3-(trifluoromethyl)phenyl)-3,4-dihydro-1,4-methanopyrido[2,3-b][1,4]diazepine-5(2H)-carboxamide]		A (EC1.5<1 μM)	A (Fold activation ≧150%)	
CC(C)(O)CCOc1cccc(NC(=O)N2c3nc(-c4cccc(C(F)(F)F)c4)c(Cl)cc3N3CC[C@H]2C3)n1 [Example 59, (4S)-8-chloro-N-(6-(3-hydroxy-3-methylbutoxy)pyridin-2-yl)-7-(3-(trifluoromethyl)phenyl)-3,4-dihydro-1,4-methanopyrido[2,3-b][1,4]diazepine-5(2H)-carboxamide]		B (EC1.5 1-25 μM)	A (Fold activation ≧150%)	
O=C(Nc1cncc(OCCO)n1)N1c2nc(-c3cccc(C(F)(F)F)c3)c(Cl)cc2N2CC[C@H]1C2 [Example 69, (4S)-8-chloro-N-(6-(2-hydroxyethoxy)pyrazin-2-yl)-7-(3-(trifluoromethyl)phenyl)-3,4-dihydro-1,4-methanopyrido[2,3-b][1,4]diazepine-5(2H)-carboxamide]		A (EC1.5<1 μM)	A (Fold activation ≧150%)	
O=C(Nc1cncc(OC[C@H](O)CO)c1)N1c2nc(-c3cccc(C(F)(F)F)c3)c(Cl)cc2N2CC[C@H]1C2 [Example 23, (4S)-8-chloro-N-(5-((R)-2,3-dihydroxypropoxy)pyridin-3-yl)-7-(3-(trifluoromethyl)phenyl)-3,4-dihydro-1,4-methanopyrido[2,3-b][1,4]diazepine-5(2H)-carboxamide]		A (EC1.5<1 μM)	A (Fold activation ≧150%)	
O=C(Nc1cccc(OCCO)n1)N1c2nc(-c3cccc(C(F)(F)F)c3)c(Cl)cc2N2CC[C@H]1C2 [Example 79, (4S)-8-chloro-N-(6-(2-hydroxyethoxy)pyridin-2-yl)-7-(3-(trifluoromethyl)phenyl)-3,4-dihydro-1,4-methanopyrido[2,3-b][1,4]diazepine-5(2H)-carboxamide]		A (EC1.5<1 μM)	A (Fold activation ≧150%)	
Cc1ccc(-c2nc3c(cc2F)N2CC[C@@H](C2)N3C(=O)Nc2ccccn2)cn1 [Example 5, (4S)-8-fluoro-7-(6-methylpyridin-3-yl)-N-(pyridin-2-yl)-3,4-dihydro-1,4-methanopyrido[2,3-b][1,4]diazepine-5(2H)-carboxamide]		B (EC1.5 1-25 μM)	A (Fold activation ≧150%)	
Cc1ccc(-c2nc3c(cc2Cl)N2CC[C@@H](C2)N3C(=O)Nc2cccnc2)cn1 [Example 3, (4S)-8-chloro-7-(6-methylpyridin-3-yl)-N-(pyridin-3-yl)-3,4-dihydro-1,4-methanopyrido[2,3-b][1,4]diazepine-5(2H)-carboxamide]				TRP Activity (EC1.5): B (key: A: EC1.5<1 μM; B: EC1.5 1-25 μM; EC1.5>25 μM); TRP MAX RESP (percent maximum fold activation): A (key: A: Fold activation ≧150%; B: Fold Activation <150%)

Second part, led by results:

TRP MAX RESP (percent maximum fold activation) [1]	TRP Activity (EC1.5) [2]	TRP MAX RESP (percent maximum fold activation) [3]	SMILES	also measured
	B (EC1.5 1-25 μM)	A (Fold activation ≧150%)	O=C(Nc1cnccn1)N1c2nc(N3CCOCC3)ccc2N2CC[C@H]1C2 [Example 160, (4S)-7-morpholino-N-(pyrazin-2-yl)-3,4-dihydro-1,4-methanopyrido[2,3-b][1,4]diazepine-5(2H)-carboxamide]	
A (Fold activation ≧150%)			Cc1cc(-c2ccc3c(n2)N(C(=O)Nc2cc(N4CCCC4)ccn2)[C@H]2CCN3C2)ccn1 [Example 367]	
	A (EC1.5<1 μM)	A (Fold activation ≧150%)	Cc1cc(-c2ccc3c(n2)N(C(=O)Nc2cncc(F)n2)[C@H]2CCN3C2)ccn1 [Example 190, (4S)-N-(6-fluoropyrazin-2-yl)-7-(2-methylpyridin-4-yl)-3,4-dihydro-1,4-methanopyrido[2,3-b][1,4]diazepine-5(2H)-carboxamide]	
	B (EC1.5 1-25 μM)	A (Fold activation ≧150%)	Cc1ccc(-c2nc3c(cc2C)N2CC[C@@H](C2)N3C(=O)Nc2ccccn2)cn1 [Example 8, (4S)-8-methyl-7-(6-methylpyridin-3-yl)-N-(pyridin-2-yl)-3,4-dihydro-1,4-methanopyrido[2,3-b][1,4]diazepine-5(2H)-carboxamide]	
A (Fold activation ≧150%)			CCc1cnc(NC(=O)N2c3nc(-c4ccc(C)nc4)ccc3N3CC[C@H]2C3)cn1 [Example 220, (4S)-N-(5-ethylpyrazin-2-yl)-7-(6-methylpyridin-3-yl)-3,4-dihydro-1,4-methanopyrido[2,3-b][1,4]diazepine-5(2H)-carboxamide]	TRP Activity (EC1.5, concentration of test compound that results in 150% activation of SIRT1) [1]: B (EC1.5 1-25 μM)
B (Fold Activation <150%)			N#Cc1ccc(-c2ccc3c(n2)N(C(=O)Nc2cnccn2)[C@H]2CCN3C2)cn1 [Example 219, (4S)-7-(6-cyanopyridin-3-yl)-N-(pyrazin-2-yl)-3,4-dihydro-1,4-methanopyrido[2,3-b][1,4]diazepine-5(2H)-carboxamide]	TRP Activity (EC1.5, concentration of test compound that results in 150% activation of SIRT1) [1]: C (EC1.5>25 μM)
	B (EC1.5 1-25 μM)	A (Fold activation ≧150%)	Cc1cc(-c2ccc3c(n2)N(C(=O)Nc2ccn(C)n2)[C@H]2CCN3C2)ccn1 [Example 182, (4S)-N-(1-methyl-1H-pyrazol-3-yl)-7-(2-methylpyridin-4-yl)-3,4-dihydro-1,4-methanopyrido[2,3-b][1,4]diazepine-5(2H)-carboxamide]	
A (Fold activation ≧150%)			Cc1ccc(-c2ccc3c(n2)N(C(=O)Nc2ccnc(O[C@H]4CCOC4)n2)[C@H]2CCN3C2)cn1 [Example 227, (4S)-7-(6-methylpyridin-3-yl)-N-(2-(((S)-tetrahydrofuran-3-yl)oxy)pyrimidin-4-yl)-3,4-dihydro-1,4-methanopyrido[2,3-b][1,4]diazepine-5(2H)-carboxamide]	TRP Activity (EC1.5, concentration of test compound that results in 150% activation of SIRT1) [1]: B (EC1.5 1-25 μM)
	A (EC1.5<1 μM)	A (Fold activation ≧150%)	CCc1cnc(NC(=O)N2c3nc(-c4ccnc(C)c4)ccc3N3CC[C@H]2C3)cn1 [Example 161, (4S)-N-(5-ethylpyrazin-2-yl)-7-(2-methylpyridin-4-yl)-3,4-dihydro-1,4-methanopyrido[2,3-b][1,4]diazepine-5(2H)-carboxamide]	
A (Fold activation ≧150%)			Cc1cc(-c2ccc3c(n2)N(C(=O)Nc2nccc(C)n2)[C@H]2CCN3C2)ccn1 [Example 263]	
	B (EC1.5 1-25 μM)	A (Fold activation ≧150%)	CC1CCN(c2ccc3c(n2)N(C(=O)Nc2cnccn2)[C@H]2CCN3C2)CC1 [Example 198, (4S)-7-(4-methylpiperidin-1-yl)-N-(pyrazin-2-yl)-3,4-dihydro-1,4-methanopyrido[2,3-b][1,4]diazepine-5(2H)-carboxamide]	
A (Fold activation ≧150%)			Cn1ccc(-c2ccc3c(n2)N(C(=O)Nc2cccnc2)[C@H]2CCN3C2)cc1=O [Example 233, (4S)-7-(1-methyl-2-oxo-1,2-dihydropyridin-4-yl)-N-(pyridin-3-yl)-3,4-dihydro-1,4-methanopyrido[2,3-b][1,4]diazepine-5(2H)-carboxamide]	TRP Activity (EC1.5, concentration of test compound that results in 150% activation of SIRT1) [1]: B (EC1.5 1-25 μM)
